From patent US20190100534A1, “Cephem Compounds with Latent Reactive Groups” (Gladius Pharmaceuticals, Inc., priority 2017, published 2019)

How the values were obtained:
EC (Escherichia coli) = test: MIC determination; type: cell-based; settings: 20 μM Apo-Transferrin, 37° C., 18 hours; for MIC: Escherichia coli, first EC column of Table 3-1, CAMH broth, read-out: Minimum Inhibitory Concentrations, EC; for Minimum Inhibitory Concentrations, EC: Table 3-1, CAMH broth
In short: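 Using an iron-depleting medium (CAMH plus 20 μM apo-transferrin), organisms at 0.5 McFarland faced compound from 64 μg/mL downward in twofold steps. Readout: visual, after 18 h at 37 °C.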

[1] = test system: A. baumannii (JMI OXA-58); test: MIC determination; type: cell-based, Acinetobacter baumannii; settings: Acinetobacter baumannii, class D carbapenemase producer, CAMH broth, 20 μM Apo-Transferrin, 37° C., 18 hours, read-out: Minimum Inhibitory Concentrations, A. baumannii (JMI OXA-58)
Description: (§1) Sterile technique was used throughout these experiments. Suspensions of organisms were removed from storage (−80° C.) and partially thawed. Partially thawed organisms (1 μL) were inoculated into 3 mL sterile LB Broth in a sterile culture tube and capped, then cultured at 37° C. with shaking for 4-5 hours until the optical density at 600 nm (OD600) was greater than 0.1 on a single beam spectrophotometer.
(§2) The concentration of organisms was adjusted to 0.08-0.1 OD600 (0.5 McFarland units) by dilution with sterile cation-adjusted Meuller-Hinton (CAMH) broth. The suspensions were used within 30 minutes of preparation.
(§3) A stock solution was made of each test compound by measuring 6.4 mg of the compound on an analytical balance and dissolving it in DMSO (1 mL) to get a transparent solution. The solutions were stored at −20° C. and thawed prior to use.
(§4) Sterile CAMH broth (200 μL) containing 20 μM Apo-Transferrin was pipetted into the first row of 8 columns of a sterile, round-bottomed, transparent, 96-well microplate using an 8-channel pipette equipped with sterile tips. One hundred μL was pipetted into the wells of the remaining 11 rows.
(§5) With an 8-channel pipette equipped with sterile tips, 100 μL of the first row solution was transferred to the second row and mixed. The process was repeated for the second to third rows and continued through row 11. One hundred μL from row 11 was removed and discarded so that all 12 rows contained 100 μL. Row 12 contained no compound and rows 1-11 contained 64, 32, 16, 8, 4, 2, 1, 0.5, 0.25, 0.125, […] of a given compound.
(§6) Inoculant suspensions (0.5 μL) were added to the 12 wells of each column. The plates were then covered and incubated at 37° C. overnight for 18 hours.
(§7) For each organism the MIC was determined by identifying the transparent well with the lowest test compound concentration.

A. baumannii = test: MIC determination; type: cell-based, Acinetobacter baumannii; settings: for MIC: Acinetobacter baumannii, A. baumannii, CAMH broth, 20 μM Apo-Transferrin, 37° C., 18 hours, read-out: Minimum Inhibitory Concentrations, A. baumannii
Description: as §1, §2, §3, §4, §5, §6, §7

EC (RR -1) = test: MIC determination; type: cell-based, Escherichia coli; settings: CAMH broth, 20 μM Apo-Transferrin, 37° C., 18 hours
Description: as §1, §2, §3, §4, §5, §6, §7

EC (RR -2) = test: MIC determination; type: cell-based, Escherichia coli; settings: CAMH broth, 20 μM Apo-Transferrin, 37° C., 18 hours
Description: as §1, §2, §3, §4, §5, §6, §7

EC (URMC-1) = test: MIC determination; type: cell-based, Escherichia coli; settings: Escherichia coli, CAMH broth, 20 μM Apo-Transferrin, 37° C., 18 hours, read-out: Minimum Inhibitory Concentrations, EC (URMC-1)
Description: as §1, §2, §3, §4, §5, §6, §7

EC (URMC-2) = test: MIC determination; type: cell-based, Escherichia coli; settings: Escherichia coli, CAMH broth, 20 μM Apo-Transferrin, 37° C., 18 hours, read-out: Minimum Inhibitory Concentrations, EC (URMC-2)
Description: as §1, §2, §3, §4, §5, §6, §7

EC (URMC-3) = test: MIC determination; type: cell-based, Escherichia coli; settings: Escherichia coli, CAMH broth, 20 μM Apo-Transferrin, 37° C., 18 hours, read-out: Minimum Inhibitory Concentrations, EC (URMC-3)
Description: as §1, §2, §3, §4, §5, §6, §7

EC(ATCC NDM-1) = test: MIC determination; type: cell-based, Escherichia coli; settings: Escherichia coli, CAMH broth, 20 μM Apo-Transferrin, 37° C., 18 hours, read-out: Minimum Inhibitory Concentrations, EC(ATCC NDM-1)
Description: as §1, §2, §3, §4, §5, §6, §7

EC(JMI OXA-48) = test: MIC determination; type: cell-based, Escherichia coli; settings: Escherichia coli, CAMH broth, 20 μM Apo-Transferrin, 37° C., 18 hours, read-out: Minimum Inhibitory Concentrations, EC(JMI OXA-48)
Description: as §1, §2, §3, §4, §5, §6, §7

EC(KB1 CTX-M-15) = test: MIC determination; type: cell-based, Escherichia coli; settings: Escherichia coli, CAMH broth, 20 μM Apo-Transferrin, 37° C., 18 hours, read-out: Minimum Inhibitory Concentrations, EC(KB1 CTX-M-15)
Description: as §1, §2, §3, §4, §5, §6, §7

EC(KB2 CTX-M-15) = test: MIC determination; type: cell-based, Escherichia coli; settings: Escherichia coli, CAMH broth, 20 μM Apo-Transferrin, 37° C., 18 hours, read-out: Minimum Inhibitory Concentrations, EC(KB2 CTX-M-15)
Description: as §1, §2, §3, §4, §5, §6, §7

EA (URMC -3) = test: MIC determination; type: cell-based; settings: CAMH broth, 20 μM Apo-Transferrin, 37° C., 18 hours
Description: as §1, §2, §3, §4
To each well of the first row was pipetted 2.0 μL of the 6.4 mg/mL stock test compound stock solution to give 1:100 dilutions and a final concentration of 64 μg/mL and mixed.
as §5, §6, §7

CF (RR -1) = test: MIC determination; type: cell-based, Citrobacter freundii; settings: CAMH broth, 20 μM Apo-Transferrin, 37° C., 18 hours
Description: as §1, §2, §3, §4, §5, §6, §7

ENC (ATCC NDM-1) = test: MIC determination; type: cell-based, Enterobacter cloacae; settings: CAMH broth, 20 μM Apo-Transferrin, 37° C., 18 hours
Description: as §1, §2, §3, §4, §5, §6, §7

[2] = test system: Isogenic E. coli J58 strain carrying TEM-26; test: MIC determination, isogenic E. coli strains; type: cell-based; settings: Escherichia coli, 18 h, read-out: Mimimum Inhibitory Concentrations, TEM-26
In short: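 Broth microdilution in cation-adjusted Mueller-Hinton broth with 20 μM apo-transferrin, compound […] in twofold steps, inoculum from 0.5 McFarland suspension. E. coli J53 transformed with pBC-SK(+) encoding TEM-26; 18 h at 37° C, MIC as lowest concentration giving a clear well.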

[3] = test system: Isogenic E. coli J58 strain carrying DHA-1; test: MIC determination, isogenic E. coli strains; type: cell-based; settings: Escherichia coli, 18 h, read-out: Mimimum Inhibitory Concentrations, DHA-1
In short: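 Broth microdilution in cation-adjusted Mueller-Hinton broth with 20 μM apo-transferrin, 2-fold compound series from 64 μg/mL. E. coli J53, alone or transformed with a pBC-SK(+) plasmid carrying the beta-lactamase gene (e.g. DHA-1), inoculated from 0.5 McFarland suspension; 18 h at 37° C; MIC = lowest concentration with clear well.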

[4] = test system: Isogenic E. coli J58 strain carrying CTX-M-14; test: MIC determination, isogenic E. coli strains; type: cell-based; settings: Escherichia coli, 18 h, read-out: Mimimum Inhibitory Concentrations, CTX-M-14
In short: (§8)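 Isogenic E. coli J53 carrying plasmid-encoded CTX-M-14 or CTX-M-15 (ampicillin-selected), standardized to 0.08-0.1 OD600, incubated overnight (18 h, 37° C.) in CAMH broth plus 20 μM apo-transferrin over 2-fold compound dilutions starting at 64 μg/mL. Lowest concentration with no visible growth recorded as MIC.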

[5] = test system: Isogenic E. coli J58 strain carrying CTX-M-15; test: MIC determination, isogenic E. coli strains; type: cell-based; settings: Escherichia coli, 18 h, read-out: Mimimum Inhibitory Concentrations, CTX-M-15
In short: as §8

[6] = test system: Isogenic E. coli J58 strain carrying VIM-2; test: MIC determination, isogenic E. coli strains; type: cell-based; settings: Escherichia coli, 18 h, read-out: Mimimum Inhibitory Concentrations, VIM-2
In short: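 E. coli J53 transformed with pBC-SK(+) plasmid carrying synthesized VIM-2 gene, grown in LB to OD600 >0.1, adjusted to 0.08–0.1 OD600 in CAMH broth.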

| Structure (SMILES) | MIC (EC (Escherichia coli)) | Minimum Inhibitory Concentrations, EC (EC (Escherichia coli)) | MIC [1] | MIC (A. baumannii) | MIC (EC(ATCC NDM-1)) | MIC (EC(JMI OXA-48)) | MIC (EC(KB1 CTX-M-15)) | MIC (EC(KB2 CTX-M-15)) | Mimimum Inhibitory Concentrations, ENC (ATCC NDM-1) (ENC (ATCC NDM-1)) | MIC [2] | MIC [3] | MIC [4] | MIC [5] | MIC [6] | other results |
| --- | --- | --- | --- | --- | --- | --- | --- | --- | --- | --- | --- | --- | --- | --- | --- |
| CC(C)(O/N=C(\C(=O)N[C@@H]1C(=O)N2C(C(=O)O)=C(C=Cc3ccc(C[N+]4(C)CCc5ccc(O)c(O)c5C4)cc3)CS[C@H]12)c1csc(N)n1)C(=O)O (mixture of isomers) [Compound 442, 2-(4-((E/Z)-2-((6R,7R)-7-((Z)-2-(2-aminothiazol-4-yl)-2-(((2-carboxypropan-2-yl)oxy)imino)acetamido)-2-carboxy-8-oxo-5-thia-1-azabicyclo[4.2.0]oct-2-en-3 yl)vinyl)benzyl)-7,8-dihydroxy-2-methyl-1,2,3,4-tetrahydroisoquinolin-2-ium] | 0.25 µg/mL | 0.25 microgram/mL | > 64 µg/mL | 1 µg/mL | > 64 µg/mL | 4 µg/mL | 32 µg/mL | 32 µg/mL | >64 microgram/mL | 0.5 µg/mL | – | – | – | – | MICs for an Acinetobacter baumannii strain, in words (A. baumannii; review of Table 2): low microgram/mL MICs; Mimimum Inhibitory Concentrations, EC (RR -1) (EC (RR -1)): 0.25 microgram/mL; Mimimum Inhibitory Concentrations, EC (RR -2) (EC (RR -2)): 0.13 microgram/mL; MIC (EC (URMC-1)): 0.25 µg/mL; MIC (EC (URMC-2)): 0.13 µg/mL; MIC (EC (URMC-3)): 0.13 µg/mL; Mimimum Inhibitory Concentrations, EA (URMC -3) (EA (URMC -3)): 1 microgram/mL; Mimimum Inhibitory Concentrations, CF (RR -1) (CF (RR -1)): 0.25 microgram/mL |
| Cn1c[n+](Cc2ccc(C=CC3=C(C(=O)O)N4C(=O)[C@@H](NC(=O)/C(=N\OC(C)(C)C(=O)O)c5csc(N)n5)[C@H]4SC3)cc2)cc1C(=O)Nc1ccc(O)c(O)c1 (mixture of isomers) [Compound 411, 3-(4-((E/Z)-2-((6R,7R)-7-((Z)-2-(2-aminothiazol-4-yl)-2-(((2-carboxypropan-2-yl)oxy)imino)acetamido)-2-carboxy-8-oxo-5-thia-1-azabicyclo[4.2.0]oct-2-en-3-yl)vinyl)benzyl)-5-((3,4-dihydroxyphenyl)carbamoyl)-1-methyl-1H-imidazol-3-ium] | – | – | – | – | – | – | – | – | – | 8 µg/mL | 1 µg/mL | 4 µg/mL | 0.5 µg/mL | 2 µg/mL | – |
| CC(C)(O/N=C(\C(=O)N[C@@H]1C(=O)N2C(C(=O)O)=C(C=Cc3ccc(C[N+](C)(C)Cc4ccc(O)c(O)c4Cl)cc3)CS[C@H]12)c1csc(N)n1)C(=O)O (mixture of isomers) [Compound 434, N-(4-((E/Z)-2-((6R,7R)-7-((Z)-2-(2-aminothiazol-4-yl)-2-(((2-carboxypropan-2-yl)oxy)imino)acetamido)-2-carboxy-8-oxo-5-thia-1-azabicyclo[4.2.0]oct-2-en-3-yl)vinyl)benzyl)-1-(2-chloro-3,4-dihydroxyphenyl)-N,N-dimethylmethanaminium] | – | – | – | – | – | – | – | – | – | 2 µg/mL | 1 µg/mL | 2 µg/mL | 0.5 µg/mL | 2 µg/mL | – |
| C#CC[N+]1(Cc2ccc(C=CC3=C(C(=O)O)N4C(=O)[C@@H](NC(=O)/C(=N\OC(C)(C)C(=O)O)c5csc(N)n5)[C@H]4SC3)cc2)CCc2cc(O)c(O)cc2C1 (mixture of isomers) [Compound 446, 2-(4-((E/Z)-2-((6R,7R)-7-((Z)-2-(2-aminothiazol-4-yl)-2-(((2-carboxypropan-2-yl)oxy)imino)acetamido)-2-carboxy-8-oxo-5-thia-1-azabicyclo[4.2.0]oct-2-en-3-yl)vinyl)benzyl)-6,7-dihydroxy-2-(prop-2-yn-1-yl)-1,2,3,4-tetrahydroisoquinolin-2-ium] | 0.5 µg/mL | 0.5 microgram/mL | > 64 µg/mL | 2 µg/mL | > 64 µg/mL | 16 µg/mL | 64 µg/mL | > 64 µg/mL | >64 microgram/mL | 0.25 µg/mL | 0.25 µg/mL | 0.25 µg/mL | 0.25 µg/mL | 0.25 µg/mL | – |
